Here are results for 26 molecules from US9890133B2 (priority 2011, dated 2018).

Converted amounts (≈) assume the structure as drawn. Bounds are passed on as bounds.

For orientation: EC50 means the concentration needed to bring the measured effect to its halfway point.

One data set concerns Poliovirus 3. Kind of data set: microbe, parasite or virus in culture. It is filed as cell-based. The settings on record: Enterovirus C, read-out: Poliovirus3 EC50.
The nature of the next data set: in vitro. The settings on record: human.

As for `Cc1c(C(=O)NC23C(=O)c4c(N)cccc4C2(O)Oc2cc(C(C)C)ccc23)oc2ccccc12` (centres unmarked) [Example 205], in the data set on Poliovirus 3, the EC50 is 0.036 µg/mL (≈ 0.0768 µM). The molecule also yielded a CC50 in the data set “in vitro” of more than 10 µg/mL.
The corresponding values for `Cc1ncsc1C(=O)NC12C(=O)c3c(N)cccc3C1(O)Oc1cc(C(C)C)ccc12` (centres unmarked) [Example 206, N-(1-Amino-4b-hydroxy-7-isopropyl-10-oxo-9b,10-dihydro-4bH-indeno[1,2-b]benzofuran-9b-yl)-4-methylthiazole-5-carboxamide] are less than 0.01 µg/mL and more than 10 µg/mL.
The corresponding values for `CC(C)c1ccc2c(c1)OC1(O)c3cccc(N)c3C(=O)C21NC(=O)[C@@H]1CSC(=O)N1` (stereo partly drawn) [Example 207, (4R)—N-(1-amino-4b-hydroxy-7-isopropyl-10-oxo-9b,10-dihydro-4bH-indeno[1,2-b]benzofuran-9b-yl)-2-oxothiazolidine-4-carboxamide] are less than 0.01 µg/mL and more than 10 µg/mL.
With `CC(C)c1ccc2c(c1)OC1(O)c3ccccc3C(=O)C21NC(=O)c1c[nH]c2ccccc12` (centres unmarked) [Example 209, N-(4b-Hydroxy-7-isopropyl-10-oxo-9b,10-dihydro-4bH-indeno[1,2-b]benzofuran-9b-yl)-1H-indole-3-carboxamide], the EC50 in the data set on Poliovirus 3 is 0.036 µg/mL (≈ 0.0821 µM). Further, the values for the CC50 in the data set “in vitro” and in “in vitro” (Picorana CC50) were 8.43 µg/mL (≈ 19.2 µM) and more than 10 µg/mL, respectively.
Consider `CC(C)c1ccc2c(c1)OC1(O)c3cccc(N)c3C(=O)C21NC(=O)c1n[nH]c2ccccc12` (centres unmarked) [Example 212, N-(1-Amino-4b-hydroxy-7-isopropyl-10-oxo-9b,10-dihydro-4bH-benzo[d]indeno[1,2-b]furan-9b-yl)-1H-indazole-3-carboxamide], for which the EC50 in the data set with Poliovirus 3 is less than 0.01 µg/mL. In addition, the CC50 in the data set “in vitro” is more than 10 µg/mL.
Consider `CC(C)c1ccc2c(c1)OC1(O)c3cccc(N)c3C(=O)C21NC(=O)Cn1cnnn1` (centres unmarked) [Example 213, N-(1-Amino-4b-hydroxy-7-isopropyl-10-oxo-9b,10-dihydro-4bH-benzo[d]indeno[1,2-b]furan-9b-yl)-2-(1H-tetrazol-1-yl)acetamide], for which the EC50 with Poliovirus 3 is less than 0.01 µg/mL. This molecule also gave a CC50 in “in vitro” of more than 10 µg/mL.
Taken in the same sequence, the figures for `CC(C)c1ccc2c(c1)OC1(O)c3cccc(N)c3C(=O)C21NC(=O)c1cnc2ccccc2c1` (centres unmarked) [Example 214, N-(1-Amino-4b-hydroxy-7-isopropyl-10-oxo-9b,10-dihydro-4bH-indeno[1,2-b]benzofuran-9b-yl)quinoline-3-carboxamide] were less than 0.01 µg/mL and more than 10 µg/mL.
For `CC(C)c1ccc2c(c1)OC1(O)c3cccc(N)c3C(=O)C21NC(=O)c1ccnc2ccccc12` (centres unmarked) [Example 215, N-(1-Amino-4b-hydroxy-7-isopropyl-10-oxo-9b,10-dihydro-4bH-indeno[1,2-b]benzofuran-9b-yl)quinoline-4-carboxamide], the EC50 with Poliovirus 3 is less than 0.01 µg/mL. In addition, the CC50 in the data set “in vitro” is more than 10 µg/mL.
For the molecule `COc1sccc1C(=O)NC12C(=O)c3c(N)cccc3C1(O)Oc1cc(C(C)C)ccc12` (centres unmarked) [Example 217, N-(1-Amino-4b-hydroxy-7-isopropyl-10-oxo-9b,10-dihydro-4bH-indeno[1,2-b]benzofuran-9b-yl)-2-methoxythiophene-3-carboxamide], in the data set on Poliovirus 3, the EC50 came out at 0.038 µg/mL (≈ 0.0843 µM). In addition, the figures for the CC50 in “in vitro” and in the data set “in vitro” (Picorana CC50) were more than 10 µg/mL and 4.24 µg/mL (≈ 9.41 µM), respectively.
The corresponding values for `CC(C)c1ccc2c(c1)OC1(O)c3ccccc3C(=O)C21NC(=O)c1ccc2[nH]nnc2c1` (centres unmarked) [Example 221, N-(4b-Hydroxy-7-isopropyl-10-oxo-9b,10-dihydro-4bH-benzo[d]indeno[1,2-b]furan-9b-yl)-1H-benzo[d][1,2,3]triazole-5-carboxamide] are 0.016 µg/mL (≈ 0.0363 µM), 6.53 µg/mL (≈ 14.8 µM) and 14.5 µg/mL (≈ 32.9 µM).
Take `CC(C)c1ccc2c(c1)OC1(O)c3ccccc3C(=O)C21NC(=O)c1ccc([N+](=O)[O-])s1` (centres unmarked) [Example 223, N-(4b-hydroxy-7-isopropyl-10-oxo-9b,10-dihydro-4bH-benzo[d]indeno[1,2-b]furan-9b-yl)-5-nitrothiophene-2-carboxamide]: the EC50 in the data set on Poliovirus 3 was less than 0.01 µg/mL. In addition, the CC50 in “in vitro” was 4.36 µg/mL (≈ 9.68 µM); in “in vitro” (Picorana CC50), 7.46 µg/mL (≈ 16.6 µM).
The corresponding values for `CC(C)c1ccc2c(c1)OC1(O)c3cccc(N)c3C(=O)C21NC(=O)C(=O)c1cccs1` (centres unmarked) [Example 231, N-(1-Amino4b-hydroxy-7-isopropyl-10-oxo-9b,10-dihydro-4bH-indeno[1,2-b]benzofuran-9b-yl)-2-oxo-2-(thiophen-2-yl)acetamide] are less than 0.01 µg/mL, more than 10 µg/mL and 8.64 µg/mL (≈ 19.3 µM).
As to `CC(C)c1ccc2c(c1)OC1(O)c3cccc(N)c3C(=O)C21NC(=O)c1ccc[nH]1` (centres unmarked) [Example 233, N-(1-Amino-4b-hydroxy-7-isopropyl-10-oxo-9b,10-dihydro-4bH-indeno[1,2-b]benzofuran-9b-yl)-1H-pyrrole-2-carboxamide], the EC50 in the data set on Poliovirus 3 was less than 0.01 µg/mL. In addition, the CC50 in “in vitro” was more than 10 µg/mL; in the data set “in vitro” (Picorana CC50) it was 31.9 µg/mL (≈ 79 µM).
Consider `COc1cc(C(=O)NC23C(=O)c4c(N)cccc4C2(O)Oc2cc(C(C)C)ccc23)ccn1` (centres unmarked) [Example 234, N-(1-Amino-4b-hydroxy-7-isopropyl-10-oxo-9b,10-dihydro-4bH-indeno[1,2-b]benzofuran-9b-yl)-2-methoxyisonicotinamide], for which, in the data set on Poliovirus 3, the half-maximal effective concentration (EC50) was less than 0.01 µg/mL. For the same molecule, the CC50 is more than 10 µg/mL in the data set “in vitro” and 9.1 µg/mL (≈ 20.4 µM) in “in vitro” (Picorana CC50).
Taken in the same sequence, the figures for `CC(C)c1ccc2c(c1)OC1(O)c3cccc(N)c3C(=O)C21NC(=O)c1cc2ccccc2s1` (centres unmarked) [Example 235, N-(1-Amino-4b-hydroxy-7-isopropyl-10-oxo-9b,10-dihydro-4bH-benzo[d]indeno[1,2-b]furan-9b-yl)benzo[b]thiophene-2-carboxamide] were less than 0.01 µg/mL, 8.88 µg/mL (≈ 18.9 µM) and 7.97 µg/mL (≈ 16.9 µM).
Taken in the same sequence, the figures for `CC(C)c1ccc2c(c1)OC1(O)c3cccc(N)c3C(=O)C21NC(=O)c1cnnc2ccccc12` (centres unmarked) [Example 238, N-(1-Amino-4b-hydroxy-7-isopropyl-10-oxo-9b,10-dihydro-4bH-benzo[d]indeno[1,2-b]furan-9b-yl)cinnoline-4-carboxamide] were less than 0.01 µg/mL, more than 10 µg/mL and 8.33 µg/mL (≈ 17.9 µM).
The corresponding values for `CC(C)c1ccc2c(c1)OC1(O)c3ccccc3C(=O)C21NC(=O)c1ccc2[nH]cnc2c1` (centres unmarked) [Example 240, N-(4b-hydroxy-7-isopropyl-10-oxo-9b,10-dihydro-4bH-benzo[d]indeno[1,2-b]furan-9b-yl)-1H-benzo[d]imidazole-5-carboxamide] are less than 0.01 µg/mL, more than 10 µg/mL and 8.25 µg/mL (≈ 18.8 µM).
As to `CC(C)c1ccc2c(c1)OC1(O)c3cccc(N)c3C(=O)C21NC(=O)c1n[nH]cc1[N+](=O)[O-]` (centres unmarked) [Example 242, N-(1-Amino-4b-hydroxy-7-isopropyl-10-oxo-9b,10-dihydro-4bH-benzo[d]indeno[1,2-b]furan-9b-yl)-4-nitro-1H-pyrazole-3-carboxamide], the EC50 in the data set on Poliovirus 3 was less than 0.01 µg/mL. The CC50 in the data set “in vitro” was more than 10 µg/mL; in “in vitro” (Picorana CC50), 8.55 µg/mL (≈ 19 µM).
Taken in the same sequence, the figures for `Cc1ccnc(C(=O)NC23C(=O)c4c(N)cccc4C2(O)Oc2cc(C(C)C)ccc23)c1` (centres unmarked) [Example 243, N-(1-Amino-4b-hydroxy-7-isopropyl-10-oxo-9b,10-dihydro-4bH-benzo[d]indeno[1,2-b]furan-9b-yl)-4-methylpicolinamide] were less than 0.01 µg/mL, more than 10 µg/mL and 7.36 µg/mL (≈ 17.1 µM).
Taken in the same sequence, the figures for `CC(C)c1ccc2c(c1)OC1(O)c3cccc(N)c3C(=O)C21NC(=O)c1cc(C(F)(F)F)ccn1` (centres unmarked) [Example 244, N-(1-Amino-4b-hydroxy-7-isopropyl-10-oxo-9b,10-dihydro-4bH-benzo[d]indeno[1,2-b]furan-9b-yl)-4-(trifluoromethyl)picolinamide] were less than 0.01 µg/mL, more than 10 µg/mL and 15.7 µg/mL (≈ 32.5 µM).
Taken in the same sequence, the figures for `CC(C)c1ccc2c(c1)OC1(O)c3cccc(N)c3C(=O)C21NC(=O)c1ccc(C#N)cn1` (centres unmarked) [Example 245, N-(1-Amino-4b-hydroxy-7-isopropyl-10-oxo-9b,10-dihydro-4bH-benzo[d]indeno[1,2-b]furan-9b-yl)-5-cyanopicolinamide] were less than 0.01 µg/mL, more than 10 µg/mL and 8.47 µg/mL (≈ 19.2 µM).
For the molecule `CC(C)c1ccc2c(c1)OC1(O)c3cccc(N)c3C(=O)C21NC(=O)c1ncccc1Cl` (centres unmarked) [Example 246, N-(1-Amino-4b-hydroxy-7-isopropyl-10-oxo-9b,10-dihydro-4bH-benzo[d]indeno[1,2-b]furan-9b-yl)-3-chloropicolinamide], in the data set with Poliovirus 3, the EC50 was less than 0.01 µg/mL. The CC50 in “in vitro” is more than 10 µg/mL; in “in vitro” (Picorana CC50) it was 9.84 µg/mL (≈ 21.9 µM).
For the molecule `CC(C)c1ccc2c(c1)OC1(O)c3cccc(N)c3C(=O)C21NC(=O)c1cc2ccccc2cn1` (centres unmarked) [Example 248, N-(1-Amino-4b-hydroxy-7-isopropyl-10-oxo-9b,10-dihydro-4bH-indeno[1,2-b]benzofuran-9b-yl)isoquinoline-3-carboxamide], the EC50 in the data set on Poliovirus 3 turned out to be 0.027 µg/mL (≈ 0.058 µM). Besides, the values for the CC50 in the data set “in vitro” and in “in vitro” (Picorana CC50) were more than 10 µg/mL and 4.99 µg/mL (≈ 10.7 µM), respectively.
In the case of `Cc1cc(C(=O)NC23C(=O)c4c(N)cccc4C2(O)Oc2cc(C(C)C)ccc23)ccn1` (centres unmarked) [Example 249, N-(1-Amino-4b-hydroxy-7-isopropyl-10-oxo-9b,10-dihydro-4bH-indeno[1,2-b]benzofuran-9b-yl)-2-methylisonicotinamide], in the data set with Poliovirus 3, the EC50 was less than 0.01 µg/mL. For the same molecule, the CC50 in the data set “in vitro” was more than 10 µg/mL.
Taken in the same sequence, the figures for `CC(C)c1ccc2c(c1)OC1(O)c3cccc(N)c3C(=O)C21NC(=O)c1ccncc1F` (centres unmarked) [Example 250, N-(1-Amino-4b-hydroxy-7-isopropyl-10-oxo-9b,10-dihydro-4bH-indeno[1,2-b]benzofuran-9b-yl)-3-fluoroisonicotinamide] were less than 0.01 µg/mL and more than 10 µg/mL.
Taken in the same sequence, the figures for `CC(C)c1ccc2c(c1)OC1(O)c3cccc(N)c3C(=O)C21NC(=O)c1ccncc1Cl` (centres unmarked) [Example 251, N-(1-Amino-4b-hydroxy-7-isopropyl-10-oxo-9b,10-dihydro-4bH-indeno[1,2-b]benzofuran-9b-yl)-3-chloroisonicotinamide] were less than 0.01 µg/mL and more than 10 µg/mL.
